This passage reports Ki results from patent US9283222B2 (priority 2006, dated 2016).

The assay deals with Recombinant Human Poly(ADP-Ribose) Polymerase (PARP), PARP-1 (Homo sapiens (Human), UniProt P09874). Conditions: read-out: PARP-1 (Ki).
[1] abbreviates: Table 1, text calls the values EC50s.

Where two headings read alike, the source gives them in different places.

Sequence of Recombinant Human Poly(ADP-Ribose) Polymerase (PARP), PARP-1 (P09874 whole entry): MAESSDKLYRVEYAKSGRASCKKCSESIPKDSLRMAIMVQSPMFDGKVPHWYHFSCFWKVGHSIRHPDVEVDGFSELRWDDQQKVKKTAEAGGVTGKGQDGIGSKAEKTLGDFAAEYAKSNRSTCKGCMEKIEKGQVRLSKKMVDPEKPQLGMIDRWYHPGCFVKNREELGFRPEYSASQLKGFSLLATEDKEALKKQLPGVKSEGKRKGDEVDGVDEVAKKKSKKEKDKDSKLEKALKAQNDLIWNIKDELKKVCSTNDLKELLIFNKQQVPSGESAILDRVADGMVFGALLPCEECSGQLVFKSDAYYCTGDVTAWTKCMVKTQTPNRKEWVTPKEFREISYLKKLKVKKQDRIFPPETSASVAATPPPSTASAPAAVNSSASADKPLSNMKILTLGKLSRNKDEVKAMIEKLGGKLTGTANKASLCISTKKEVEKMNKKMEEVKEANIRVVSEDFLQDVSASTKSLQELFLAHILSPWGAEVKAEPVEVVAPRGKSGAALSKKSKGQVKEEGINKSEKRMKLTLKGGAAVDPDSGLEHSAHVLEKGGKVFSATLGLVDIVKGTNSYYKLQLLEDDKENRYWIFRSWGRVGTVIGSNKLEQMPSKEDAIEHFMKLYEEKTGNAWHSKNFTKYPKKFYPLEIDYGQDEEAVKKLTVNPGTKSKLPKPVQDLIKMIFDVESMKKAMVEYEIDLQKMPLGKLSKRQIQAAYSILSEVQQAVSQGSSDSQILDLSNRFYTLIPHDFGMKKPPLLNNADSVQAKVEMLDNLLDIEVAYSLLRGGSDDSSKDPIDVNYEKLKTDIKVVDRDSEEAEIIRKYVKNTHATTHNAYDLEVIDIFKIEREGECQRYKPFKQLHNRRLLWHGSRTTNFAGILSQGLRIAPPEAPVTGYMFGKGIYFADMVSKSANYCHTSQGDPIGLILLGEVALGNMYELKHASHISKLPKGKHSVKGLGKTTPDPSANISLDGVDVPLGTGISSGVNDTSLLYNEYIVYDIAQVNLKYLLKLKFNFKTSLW
Description: Nicotinamide[2,5′,8-3H]adenine dinucleotide and strepavidin SPA beads were purchased from Amersham Biosiences. […] NAD^+, histone, aminobenzamide, 3-amino benzamide and Calf Thymus DNA (dcDNA) were purchased from Sigma. Stem loop oligonucleotide containing MCAT sequence was obtained from Qiagen. The oligos were dissolved to 1 mM in annealing buffer containing 10 mM Tris HCl pH 7.5, 1 mM EDTA, and 50 mM NaCl, incubated for 5 minutes at 95° C., and annealed at 45° C. for 45 minutes. […] Biotinylated histone H1 was prepared by treating the protein with Sulfo-NHS-LC-Biotin from Pierce. The biotinylation reaction was conducted by slowly and intermittently adding 3 equivalents of 10 mM Sulfo-NHS-LC-Biotin to 100 μM Histone H1 in phosphate-buffered saline, pH 7.5, at 4° C. with gentle vortexing over 1 minute followed by subsequent 4° C. incubation for 1 hour. Streptavidin coated (FlashPlate Plus) microplates were purchased from Perkin Elmer.
PARP1 assay was conducted in PARP assay buffer containing 50 mM Tris pH 8.0, 1 mM DTT, 4 mM MgCl2. […] Auto reactions utilizing SPA bead-based detection were carried out in 100 μL volumes in white 96 well plates.

What is called Ki is a measure of affinity in units of concentration, obtained from inhibition or displacement. For `O=C(CN1CCCC1=O)Nc1cc(Cc2n[nH]c(=O)c3c2CCCC3)ccc1F` [Example 453, N-(2-fluoro-5-((4-oxo-3,4,5,6,7,8-hexahydrophthalazin-1-yl)methyl)phenyl)-2-(2-oxopyrrolidin-1-yl)acetamide], the Ki under setting [1] was found to be 14 nM.

`Cc1c(C(=O)Nc2cc(Cc3n[nH]c(=O)c4c3CCCC4)ccc2F)cnn1-c1ccccc1` [Example 454, N-(2-fluoro-5-((4-oxo-3,4,5,6,7,8-hexahydrophthalazin-1-yl)methyl)phenyl)-5-methyl-1-phenyl-1H-pyrazole-4-carboxamide]: the inhibition constant (Ki) under setting [1] was found to be 16 nM.

With `CC(=O)CCCC(=O)Nc1cc(Cc2n[nH]c(=O)c3c2CCCC3)ccc1F` [Example 455, N-(2-fluoro-5-((4-oxo-3,4,5,6,7,8-hexahydrophthalazin-1-yl)methyl)phenyl)-5-oxohexanamide], the inhibition constant (Ki) under setting [1] was determined as 1.3 nM.

`COCCC(=O)Nc1cc(Cc2n[nH]c(=O)c3c2CCCC3)ccc1F` [Example 456, N-(2-fluoro-5-((4-oxo-3,4,5,6,7,8-hexahydrophthalazin-1-yl)methyl)phenyl)-3-methoxypropanamide]: the inhibitory constant (Ki) under setting [1] is 5 nM.

As for `O=C(CCCC(=O)Nc1cc(Cc2n[nH]c(=O)c3c2CCCC3)ccc1F)Nc1ccccc1` [Example 457, N-(2-fluoro-5-((4-oxo-3,4,5,6,7,8-hexahydrophthalazin-1-yl)methyl)phenyl)-N′-phenylpentanediamide], the inhibitory constant (Ki) under setting [1] is 0.7 nM.

As for `Nc1cc(Cc2n[nH]c(=O)c3cccnc23)ccc1F` [Example 463, 8-(3-amino-4-fluorobenzyl)pyrido(2,3-d)pyridazin-5(6H)-one], the Ki under setting [1] came out at 1880 nM.

With `COC(=O)c1cc(Cc2n[nH]c(=O)c3c2NCCC3)ccc1F` [Example 465, methyl 2-fluoro-5-((5-oxo-1,2,3,4,5,6-hexahydropyrido(2,3-d)pyridazin-8-yl)methyl)benzoate], the Ki under setting [1] was found to be 3.5 nM.

`O=C(O)c1cc(Cc2n[nH]c(=O)c3c2NCCC3)ccc1F` [Example 468, 2-fluoro-5-((5-oxo-1,2,3,4,5,6-hexahydropyrido(2,3-d)pyridazin-8-yl)methyl)benzoic acid]: the Ki under setting [1] was 249 nM.

On to `O=C(NC1CCC1)c1cc(Cc2n[nH]c(=O)c3c2NCCC3)ccc1F` [Example 471, N-cyclobutyl-2-fluoro-5-((5-oxo-1,2,3,4,5,6-hexahydropyrido(2,3-d)pyridazin-8-yl)methyl)benzamide], for which the Ki under setting [1] came out at 51 nM.

`O=C(c1cc(Cc2n[nH]c(=O)c3c2NCCC3)ccc1F)N1CCN(C(=O)N2CCOCC2)CC1` [Example 473, 8-(4-fluoro-3-((4-(morpholin-4-ylcarbonyl)piperazin-1-yl)carbonyl)benzyl)-2,3,4,6-tetrahydropyrido(2,3-d)pyridazin-5(1H)-one]: the inhibition constant Ki came out at 2 nM.

As to `O=C(CCOc1ccccc1)Nc1cc(Cc2n[nH]c(=O)c3c2NCCC3)ccc1F` [Example 478, N-(2-fluoro-5-((5-oxo-1,2,3,4,5,6-hexahydropyrido(2,3-d)pyridazin-8-yl)methyl)phenyl)-3-phenoxypropanamide], the Ki under setting [1] is 2 nM.

Consider `O=C(COc1ccc(OCc2ccccc2)cc1)Nc1cc(Cc2n[nH]c(=O)c3c2NCCC3)ccc1F` [Example 481, 2-(4-(benzyloxy)phenoxy)-N-(2-fluoro-5-((5-oxo-1,2,3,4,5,6-hexahydropyrido(2,3-d)pyridazin-8-yl)methyl)phenyl)acetamide], for which, under setting [1], the inhibition constant (Ki) was found to be 12 nM.

In the case of `CCOCCN1CCN(C(=O)c2cc(Cc3n[nH]c(=O)c4c3NCCC4)ccc2F)CC1` [Example 485, 8-(3-((4-(2-ethoxyethyl)piperazin-1-yl)carbonyl)-4-fluorobenzyl)-2,3,4,6-tetrahydropyrido(2,3-d)pyridazin-5(1H)-one], under setting [1], the inhibition constant (Ki) stood at 14 nM.

For `O=C(NCCN1CCCCC1)c1cc(Cc2n[nH]c(=O)c3c2NCCC3)ccc1F` [Example 486, 2-fluoro-5-((5-oxo-1,2,3,4,5,6-hexahydropyrido(2,3-d)pyridazin-8-yl)methyl)-N-(2-piperidin-1-ylethyl)benzamide], the Ki under setting [1] is 15 nM.

For `O=C(NCC(=O)N1CCCCC1)c1cc(Cc2n[nH]c(=O)c3c2NCCC3)ccc1F` [Example 487, 2-fluoro-5-((5-oxo-1,2,3,4,5,6-hexahydropyrido(3,2-d)pyridazin-8-yl)methyl)-N-(2-oxo-2-(piperidin-1-yl)ethyl)benzamide], the inhibition constant (Ki) under setting [1] amounted to 10 nM.

With `O=C(c1cc(Cc2n[nH]c(=O)c3c2CCCC3)ccc1F)N1CCN(c2ncccn2)CC1` [Example 490, 4-(4-fluoro-3-((4-pyrimidin-2-ylpiperazin-1-yl)carbonyl)benzyl)-5,6,7,8-tetrahydrophthalazin-1(2H)-one], under setting [1], the inhibitory constant (Ki) stood at 0.7 nM.

Take `O=C1CCCN1c1cc(-c2n[nH]c(=O)c3c2CCCC3)ccc1F` [Example 491, 4-(4-fluoro-3-(2-oxopyrrolidin-1-yl)phenyl)-5,6,7,8-tetrahydrophthalazin-1(2H)-one]: under setting [1], the Ki amounted to 191 nM.

With `CN(C)C(=O)N1CCN(C(=O)c2cc(Cc3n[nH]c(=O)c4c3CCCC4)ccc2F)CC1` [Example 494, 4-{2-fluoro-5-[(4-oxo-3,4,5,6,7,8-hexahydrophthalazin-1-yl)methyl]benzoyl}-N,N-dimethylpiperazine-1-carboxamide], under setting [1], the inhibition constant (Ki) was found to be 0.9 nM.

With `O=C(c1cc(Cc2n[nH]c(=O)c3c2CCCC3)ccc1F)N1CCN(C(=O)N2CCCCC2)CC1` [Example 495, 4-(4-fluoro-3-{[4-(piperidin-1-ylcarbonyl)piperazin-1-yl]carbonyl}benzyl)-5,6,7,8-tetrahydrophthalazin-1(2H)-one], the Ki under setting [1] amounted to 1.9 nM.

`O=C(c1cc(Cc2n[nH]c(=O)c3c2CCCC3)ccc1F)N1CCN(c2cnccn2)CC1` [Example 496, 4-{4-fluoro-3-[(4-pyrazin-2-ylpiperazin-1-yl)carbonyl]benzyl}-5,6,7,8-tetrahydrophthalazin-1(2H)-one]: the inhibitory constant (Ki) under setting [1] came out at 0.8 nM.

On to `O=C(c1cc(Cc2n[nH]c(=O)c3c2CCCC3)ccc1F)N1CCN(c2ccncc2)CC1` [Example 497, 4-{4-fluoro-3-[(4-pyridin-4-ylpiperazin-1-yl)carbonyl]benzyl}-5,6,7,8-tetrahydrophthalazin-1(2H)-one], for which the inhibitory constant (Ki) under setting [1] amounted to 1.1 nM.

In the case of `NC(=O)C1CCN(C(=O)c2cc(Cc3n[nH]c(=O)c4c3CCCC4)ccc2F)CC1` [Example 498, 1-{2-fluoro-5-[(4-oxo-3,4,5,6,7,8-hexahydrophthalazin-1-yl)methyl]benzoyl}piperidine-4-carboxamide], the Ki under setting [1] amounted to 2.7 nM.

As for `Cc1cncc(N2CCN(C(=O)c3cc(Cc4n[nH]c(=O)c5c4CCCC5)ccc3F)CC2)n1` [Example 499, 4-(4-fluoro-3-{[4-(6-methylpyrazin-2-yl)piperazin-1-yl]carbonyl}benzyl)-5,6,7,8-tetrahydrophthalazin-1(2H)-one], under setting [1], the Ki came to 1.6 nM.

As for `NC(=O)C1CCCN(C(=O)c2cc(Cc3n[nH]c(=O)c4c3CCCC4)ccc2F)C1` (stereo not shown) [Example 500, 1-{2-fluoro-5-[(4-oxo-3,4,5,6,7,8-hexahydrophthalazin-1-yl)methyl]benzoyl}piperidine-3-carboxamide], the inhibition constant (Ki) under setting [1] worked out at 3 nM.

With `CN(C)CCN1CCN(C(=O)c2cc(Cc3n[nH]c(=O)c4c3CCCC4)ccc2F)CC1` [Example 501, 4-[3-({4-[2-(dimethylamino)ethyl]piperazin-1-yl}carbonyl)-4-fluorobenzyl]-5,6,7,8-tetrahydrophthalazin-1(2H)-one], the inhibition constant Ki under setting [1] was 4 nM.
